Data as given in patent US8765684B2, “Solid materials of {[(2S,5R,8S,11S)-5-benzyl-11-(3-guanidino-propyl)-8-isopropyl-7-methyl-3,6,9,12,15-pentaoxo-1,4,7,10,13-pentaaza-cyclopentadec-2-yl]-acetic acid} and methods for obtaining them” (Merck Patent GmbH, priority 2009, dated 2014).
Values after ≈ are worked out from the molar mass of the structure shown.

Columns and labels:
[1] = Solid-state properties (hygroscopicity, stability, dissolution) stated in comparison with amorphous material and salts; assay type: physicochemical; settings: solid material; for Hygroscopicity: comparison crystalline forms vs amorphous material
[2] = Solubility of tetrahydrate Form S3 in different solvents; assay type: physicochemical
[3] = assay type: physicochemical
Text: Preferably, the anhydrates or ansolvates according to the invention and especially the crystalline form A1 can be characterised, alternatively or additionally, by dynamic vapour sorption experiments. The results can be obtained by standard techniques as described in Rolf Hilfiker, ‘Polymorphism in the Pharmaceutical Industry’, Wiley-VCH. Weinheim 2006 (Chapter 9: Water Vapour Sorption, and references therein). […] Eur. criteria.
Preferably, the tetrasolvates according to the invention, more preferably the tetrahydrates according to the invention and especially the crystalline form S3 can be characterised, alternatively or additionally, by dynamic vapour sorption experiments. The results can be obtained by standard techniques as described in Rolf Hilfiker, ‘Polymorphism in the Pharmaceutical Industry’, Wiley-VCH. Weinheim 2006 (Chapter 9: Water Vapour Sorption, and references therein).
Dynamic Vapor Sorption measurements are preferably obtained on a SMS DVS Intrinsic system. The results are preferably obtained by standard techniques as described by Rolf Hilfiker “Polymorphism in the Pharmaceutical Industry” Wiley-VCH Weinheim 2006 (Chapter 9: Water Vapour Sorption, and references therein.) Approx. 2-10 mg of samples are preferably weighed into an Aluminium 100 μL pan and placed in the sample incubator of the DVS instrument with microbalance. A nitrogen overall flow rate of 200 mL/min (combined dry and humid stream) is preferably used for humidification. Water vapor sorption isotherms are preferably acquired at 25° C. in the range 0% relative humidity to 98% relative humidity mostly with 10% relative humidity steps. For all relative humidity steps, an equilibrium condition of dm/dt≦0.0005 wt %/min are preferably used, with a minimum relative humidity step time of 10 minutes and a maximum relative humidity step time of 360 minutes which is preferably used as a timeout if the dm/dt criterai mentioned above is not been reached.
A SMS DVS I system is used for the dynamic vapour experiments regarding crystalline form S3. The results have been obtained by standard techniques as described in Rolf Hilfiker, ‘Polymorphism in the Pharmaceutical Industry’, Wiley-VCH. Weinheim 2006 (Chapter 9: Water Vapour Sorption, and references therein). […] During the water adsorption cycle there is shown an assembly of water molecules (ca. 10 wt%) in the lattice at elevated rh. In the second desorption cycle there is a loss of this amount of water.
(§1) A SMS DVS Intrinsic is used for the dynamic vapour experiments. The results are obtained by standard techniques as described in Rolf Hilfiker, ‘Polymorphism in the Pharmaceutical Industry’, Wiley-VCH. Weinheim 2006 (Chapter 9: Water Vapour Sorption, and references therein). […] Upon water vapour adsorption, an assembly of water molecules in the lattice is observed, with a maximum weight gain of approx. 8 wt % at elevated rh. In the second desorption cycle a total mass loss of approx. 9.9 wt % is observed. For a Cilengitide Dihydrate Di-Methanolate, the calculated Methanol content equals 9.3 wt %.
as §1, with “6.4” for “8”, “9.2” for “9.9”, “Di-Ethanolate,” for “Di-Methanolate,”, “Ethanol” for “Methanol”, “12.5” for “9.3”

[4] = Competitive slurry conversion of pseudopolymorphic form and form A1 (1:1) in Water/Methanol and Water/Ethanol mixtures; assay type: physicochemical; settings: for Methanol in the mixture with Water leading to form S1: 1:1 pseudopolymorphic form + A1
Experimental: b) Additionally, crystalline tetrasolvates according invention and especially crystalline forms S1 and S2 can be manufactured by competitive slurry conversion experiments with a mixture of a pseudopolymorphic form (for example S1, S2, S3 or mixtures of these) with form A1 (1:1) in Water/Methanol and Water/Ethanol mixtures with different alcohol contents at different temperatures, respectively.
(§2) Approx. 20 mg of a pseudopolymorphic form (for example S1, S2, S3 or mixtures of these) and 20 mg of form A1 of Cilengitide are dispersed in 300 μl Water/alcohol mixture at 0° C. or room temperature (25° C.). The dispersion is stirred for 24 h and additionally for 3 weeks at RT (25° C.) (long-term experiment) by a magnetic stirrer and finally filtered
Approx. 20 mg of a pseudopolymorphic form (for example S1, S2, S3 or mixtures of these) and 20 mg of form A1 of Cilengitide are dispersed in 300 μl Water/alcohol mixture at 50° C. The dispersion is stirred for 24 h by a magnetic stirrer and finally filtered.
Additionally form A1 can be manufactured by competitive slurry conversion experiments with a mixture of a pseudopolymorphic form (for example S1, S2, S3 or mixtures of these) and form A1 (1:1) in Water/Methanol and Water/Ethanol mixtures with different alcohol contents at different temperatures. In the following table the conditions for the experiments leading to the pure form A1 are listed.
as §2, with “C.,” for “C. or”, “and 50° C.” for “(25° C.).”, “filtered.” for “filtered”

[5] = Slurry conversion and competitive slurry conversion in water, saline, buffer and other solvents; assay type: physicochemical; settings: in the presence of aqueous based solvents (suspensions, wetted material), absence of methanol and/or ethanol
Experimental: a) Crystalline tetrasolvates according to the invention and especially crystalline forms S1 and S2, can be obtained by slurry conversion from form A1 in a Methanol/Water mixture (70 v %:30 v %) at 25° C. for 2 days stirring time and Ethanol/Water mixture (60 v %:40 v %) at 25° C. for 18 days stirring time, respectively. General procedure:
Approx. 500 mg of form A1 of Cilengitide are dispersed in 5 ml solvent at room temperature. The dispersion is stirred for the mentioned time by a magnetic stirrer and finally filtered.
Form A1 of Cilengitide can be obtained by slurry conversion from pseudopolymorphic forms (for example S1, S2, S3 or mixtures of these) in Water at 25° C. An increased temperature (50° C.) accelerates the conversion to form A1.
Approx. 10 g of a pseudopolymorphic form (for example S1, S2, S3 or mixtures of these) of Cilengitide are dispersed in 50 ml deionised water at room temperature. The dispersion is stirred for 24 h by a magnetic stirrer and finally filtered.
Also the pure form form A1 can be manufactured by competitive slurry conversion experiments with a mixture of a pseudopolymorphic form (for example S1, S2, S3 or mixtures of these) and A1 (1:1) in Acetone, Acetonitrile, Isopropanol, physiological NaCl solution, Phosphate buffer (pH 7.4) and 1:1 (v:v) mixtures of Acetone, Acetonitrile, Isopropanol with Water at RT (25° C.).
Approx. […]

[6] = Methanol vapour sorption (DVS, hydrate form to form S1); assay type: physicochemical
Experimental: In the respective dynamic vapor sorption experiments discussed in more detail herein using methanol vapor at 98% relative saturation for the Dihydrate-dimethanolate/crystalline form S1 at 25° C. starting with the tetrahydrate a mass gain of 9% has been obtained. This is in good agreement with the above shown results for the tetramethanolate (calculated 108.5%, i.e. 8.5% of mass gain).
Preferably, the tetrasolvates according to the invention, more preferably the Dihydrate-dimethanolate, the Dihydrate-methanolate, the Dihydrate-monoethanolate, the Dimethanolate and/or the desolvates thereof, and especially the crystalline form S1 can be characterised, alternatively or additionally, by dynamic vapour experiments using water vapour and/or methanol vapour. The results can be obtained by standard techniques as described in Rolf Hilfiker, ‘Polymorphism in the Pharmaceutical Industry’, Wiley-VCH. Weinheim 2006 (Chapter 9: Water Vapour Sorption, and references therein).
Upon water vapour adsorption, an assembly of water molecules in the lattice is observed, with a maximum weight gain of approx. 8 wt % at elevated rh. In the second desorption cycle a total mass loss of approx. 9.9 wt % is observed. For a Dihydrate Di-Methanolate of the compound of formula I, the calculated Methanol content equals 9.3 wt %. […] Methanol Vapour Sorption Isotherm (25° C.) of a hydrate form to form S1 (SMS DVS Advantage) FIG. 14.
Thus, crystalline form S1 is a crystalline Methanol solvate form or a mixed water/methanol solvate form, preferably selected from the Dihydrate-methanolate, the Dihydrate-monoethanolate, the Dimethanolate and/or the desolvates thereof, which can be obtained e.g. via Methanol Vapour Sorption, preferably via Methanol Vapour Sorption starting with a hydrate structure, such as the hydrates according to the invention and especially the tetrahydrate according to the invention, i.e crystalline form S3. […]

[7] = Conditioning of amorphous Cilengitide under methanol atmosphere; assay type: physicochemical; settings: MeOH liquid phase 100 v %
Text: As still another example, conditioning of amorphous material of the compound according to formula I or hydrate forms under methanol atmosphere yielded crystalline solvates with 2 molecules methanol per molecule of the compound according to formula I.
Conditioning of amorphous Cilengitide (abbreviated: Cil; Cilengitide=Cyclo-(Arg-Gly-Asp-DPhe-NMeVal) under methanol atmosphere yielded a solvate with 2 molecules methanol per molecule Cilengitide.

[8] = 50° C. for 1 day, table of b579
[9] = 50° C. for 1 day, table of b595
[10] = water vapour sorption, 25° C., listed as S1

Compound: CC(C)[C@H]1C(=O)N[C@@H](CCCNC(=N)N)C(=O)NCC(=O)N[C@@H](CC(=O)O)C(=O)N[C@H](Cc2ccccc2)C(=O)N1C [amorphous material, cyclo-(Arg-Gly-Asp-DPhe-NMe-Val)]
- Hygroscopicity ([1]; listed as amorphous forms): unfavourably hygroscopic
- Hygroscopicity ([1]; listed as amorphous solid material): very high hygroscopicity
- Physical and/or chemical (solid state) stability ([1]; comparison crystalline forms vs amorphous phase): low stability

Compound: CC(C)[C@H]1C(=O)N[C@@H](CCCN=C(N)N)C(=O)NCC(=O)N[C@@H](CC(=O)O)C(=O)N[C@H](Cc2ccccc2)C(=O)N1C [crystalline form S3, cyclo-(Arg-Gly-Asp-DPhe-NMe-Val)]
- solubility ([2]; solvent H2O): 21.6 mg/mL (≈ 36.7 mM)
- solubility ([2]; solvent H2O/Acetone (1:1)): 22.7 mg/mL (≈ 38.6 mM)
- solubility ([2]; solvent H2O/Acetonitrile (1:1)): 24.3 mg/mL (≈ 41.3 mM)
- solubility ([2]; solvent H2O/EtOH (1:1)): 13 mg/mL (≈ 22.1 mM)
- solubility ([2]; solvent H2O/MeOH (1:1)): 12.8 mg/mL (≈ 21.7 mM)
- solubility ([2]; solvent H2O/iPrOH (1:1)): 22.9 mg/mL (≈ 38.9 mM)
- solubility ([2]; solvent buffer pH 7.4): 24.4 mg/mL (≈ 41.4 mM)
- solubility ([2]; solvent physiological NaCl solution): 21.1 mg/mL (≈ 35.8 mM)

Compound: cyclo-(Arg-Gly-Asp-DPhe-NMe-Val) [crystalline form A1]
- Physical stability of the crystal form versus relative humidity [3]: physical stability of the crystal form throughout the entire relative humidity range (0-98%)
- Hygroscopicity classification ([3]; acc. to Ph. Eur. criteria, water vapour sorption 25° C.): non-hygroscopic
- Water uptake levels ([3]; up to 98% relative humidity, 25° C.): small
- Formation or conversion to a hydrate ([3]; water vapour sorption up to 98% relative humidity): No formation or conversion to a hydrate is observed
- Ethanol in the mixture with Water leading to pure form A1 ([4]; 0° C. for 1 day): 0-10 v %
- Methanol in the mixture with Water leading to pure form A1 ([4]; 0° C. for 1 day): 0 v %
- Ethanol in the mixture with Water leading to form A1 (no pseudopolymorphic form obtained) [4, 8]: 90-100 v %
- Methanol in the mixture with Water leading to form A1 (no pseudopolymorphic form obtained) [4, 8]: 90-100 v %
- Ethanol in the mixture with Water leading to pure form A1 [4, 9]: 0-80 v %
- Methanol in the mixture with Water leading to pure form A1 [4, 9]: 0-70 v %
- Ethanol in the mixture with Water leading to pure form A1 ([4]; RT for 3 weeks): 0-20 v %
- Methanol in the mixture with Water leading to pure form A1 ([4]; RT for 3 weeks): 0-40 v %
- Ethanol in the mixture with Water leading to pure form A1 ([4]; RT for 1 day): 0-30 v %
- Methanol in the mixture with Water leading to pure form A1 ([4]; RT for 1 day): 0-50 v %
- Thermodynamic stability of the form [5]: thermodynamically stable form

Compound: cyclo-(Arg-Gly-Asp-DPhe-NMe-Val) [crystalline form S1]
- Maximum weight gain upon water vapour adsorption ([3]; elevated rh, 25° C., listed as S1): approx. 8 wt %
- Mass loss in the first desorption cycle [3, 10]: approx. 8 wt %
- Total mass loss in the second desorption cycle [3, 10]: approx. 9.9 wt %
- Methanol in the mixture with Water leading to form S1 ([4]; 0° C. for 1 day): 40-100 v %
- Methanol in the mixture with Water leading to form S1 ([4]; RT for 3 weeks): 60-100 v %
- Methanol in the mixture with Water leading to form S1 ([4]; RT for 1 day): 60-100 v %
- Thermodynamic stability of the form ([6]; atmosphere of 100% Methanol vapour): thermodynamically stable form
- Methanol taken up by the sample ([6]; elevated Methanol partial pressure, starting with a hydrate structure): approx. 9 wt %
- Mass gain ([6]; methanol vapor at 98% relative saturation, 25° C., starting with the tetrahydrate): 9%
- H2O KF [7]: 0.3 wt %
- MeOH HS-GC [7]: 10.0 wt %
- Σ TG [7]: 10.4 wt %
- H2O KF ([7]; per 1 mol Cil): 0.1 mol
- MeOH HS-GC ([7]; per 1 mol Cil): 2.1 mol
